Test in all cases: Cysteine liganding, probe competition
Assay type in all cases: binding

The target of test [1] is T1, GCN1L1 Translational activator GCN1 (Homo sapiens, UniProt Q92616).
T1 construct: 200 μL of lysate containing 5 mg/ml proteome was treated with 2 μL of 100× compound stock; endogenous in cells
In short, it runs like this:
(§1)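 Steps: sonicate cells in cold PBS; treat 5 mg/ml lysate with compound (25° C, 1 hr); add desthiobiotin iodoacetamide probe from a 10 mM stock (25° C, 1 hr); precipitate, reduce, alkylate, digest with trypsin; capture labelled peptides on streptavidin for analysis.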

Test [2] has as its target T2, ALDH1L2 Mitochondrial 10-formyltetrahydrofolate dehydrogen (Homo sapiens, UniProt Q3SY69).
T2 construct: 200 μL of lysate containing 5 mg/ml proteome was treated with 2 μL of 100× compound stock; endogenous in cells
T2 sequence (Q3SY69 1-923): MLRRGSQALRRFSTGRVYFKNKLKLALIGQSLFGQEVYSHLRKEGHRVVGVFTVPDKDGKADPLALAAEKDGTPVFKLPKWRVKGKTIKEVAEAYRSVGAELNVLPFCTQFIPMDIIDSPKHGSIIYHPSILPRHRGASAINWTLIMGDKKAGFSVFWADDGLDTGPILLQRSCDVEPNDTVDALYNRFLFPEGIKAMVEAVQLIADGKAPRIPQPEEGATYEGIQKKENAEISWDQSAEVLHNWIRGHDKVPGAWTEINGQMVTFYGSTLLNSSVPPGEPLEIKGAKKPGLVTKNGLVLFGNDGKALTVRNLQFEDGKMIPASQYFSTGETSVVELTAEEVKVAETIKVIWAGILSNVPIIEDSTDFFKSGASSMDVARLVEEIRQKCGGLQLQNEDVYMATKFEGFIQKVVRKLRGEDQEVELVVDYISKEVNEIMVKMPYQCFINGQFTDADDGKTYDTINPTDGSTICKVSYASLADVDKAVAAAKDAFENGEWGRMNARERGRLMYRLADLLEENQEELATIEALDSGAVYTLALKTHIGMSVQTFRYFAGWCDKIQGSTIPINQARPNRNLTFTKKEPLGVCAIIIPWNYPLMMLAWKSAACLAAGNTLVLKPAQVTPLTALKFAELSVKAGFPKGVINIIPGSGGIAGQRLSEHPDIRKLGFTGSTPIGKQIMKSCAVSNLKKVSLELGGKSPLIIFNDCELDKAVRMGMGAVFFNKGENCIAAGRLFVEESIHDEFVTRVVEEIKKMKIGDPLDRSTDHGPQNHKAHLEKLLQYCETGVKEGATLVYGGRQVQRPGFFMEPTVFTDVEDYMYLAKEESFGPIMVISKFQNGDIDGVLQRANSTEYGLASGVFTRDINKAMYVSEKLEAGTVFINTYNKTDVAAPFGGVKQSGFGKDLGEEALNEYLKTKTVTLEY
In short, it runs like this: as §1

Test [3] has as its target T3, L3MBTL3 Lethal(3)malignant brain tumor-like protein 3 (Homo sapiens, UniProt Q96JM7).
T3 construct: Cells were resuspended in cold PBS on ice and sonicated with a probe sonicator to achieve lysis; endogenous in cells
To be noted: L3MBTL3 Res# 233, uniprot Q96JM7. Put shortly: as §1

Test [4] concerns the target T4, RNF213 E3 ubiquitin-protein ligase RNF213 (Homo sapiens, UniProt Q63HN8).
T4 construct: Cells were resuspended in cold PBS on ice and sonicated with a probe sonicator to achieve lysis; endogenous in cells
In short, it runs like this: as §1

The target in test [5] is T5, GFM1 Elongation factor G, mitochondrial (Homo sapiens, UniProt Q96RP9).
T5 construct: Cells were resuspended in cold PBS on ice and sonicated with a probe sonicator to achieve lysis; endogenous in cells
To be noted: GFM1 Res# 146, uniprot Q96RP9. Put shortly: as §1

Test [6] deals with T6, SRRM2 Serine/arginine repetitive matrix protein 2 (Homo sapiens, UniProt Q9UQ35).
T6 construct: Cells were resuspended in cold PBS on ice and sonicated with a probe sonicator to achieve lysis; endogenous in cells
Put shortly:
as §1

T1 sequence (Q92616 whole entry): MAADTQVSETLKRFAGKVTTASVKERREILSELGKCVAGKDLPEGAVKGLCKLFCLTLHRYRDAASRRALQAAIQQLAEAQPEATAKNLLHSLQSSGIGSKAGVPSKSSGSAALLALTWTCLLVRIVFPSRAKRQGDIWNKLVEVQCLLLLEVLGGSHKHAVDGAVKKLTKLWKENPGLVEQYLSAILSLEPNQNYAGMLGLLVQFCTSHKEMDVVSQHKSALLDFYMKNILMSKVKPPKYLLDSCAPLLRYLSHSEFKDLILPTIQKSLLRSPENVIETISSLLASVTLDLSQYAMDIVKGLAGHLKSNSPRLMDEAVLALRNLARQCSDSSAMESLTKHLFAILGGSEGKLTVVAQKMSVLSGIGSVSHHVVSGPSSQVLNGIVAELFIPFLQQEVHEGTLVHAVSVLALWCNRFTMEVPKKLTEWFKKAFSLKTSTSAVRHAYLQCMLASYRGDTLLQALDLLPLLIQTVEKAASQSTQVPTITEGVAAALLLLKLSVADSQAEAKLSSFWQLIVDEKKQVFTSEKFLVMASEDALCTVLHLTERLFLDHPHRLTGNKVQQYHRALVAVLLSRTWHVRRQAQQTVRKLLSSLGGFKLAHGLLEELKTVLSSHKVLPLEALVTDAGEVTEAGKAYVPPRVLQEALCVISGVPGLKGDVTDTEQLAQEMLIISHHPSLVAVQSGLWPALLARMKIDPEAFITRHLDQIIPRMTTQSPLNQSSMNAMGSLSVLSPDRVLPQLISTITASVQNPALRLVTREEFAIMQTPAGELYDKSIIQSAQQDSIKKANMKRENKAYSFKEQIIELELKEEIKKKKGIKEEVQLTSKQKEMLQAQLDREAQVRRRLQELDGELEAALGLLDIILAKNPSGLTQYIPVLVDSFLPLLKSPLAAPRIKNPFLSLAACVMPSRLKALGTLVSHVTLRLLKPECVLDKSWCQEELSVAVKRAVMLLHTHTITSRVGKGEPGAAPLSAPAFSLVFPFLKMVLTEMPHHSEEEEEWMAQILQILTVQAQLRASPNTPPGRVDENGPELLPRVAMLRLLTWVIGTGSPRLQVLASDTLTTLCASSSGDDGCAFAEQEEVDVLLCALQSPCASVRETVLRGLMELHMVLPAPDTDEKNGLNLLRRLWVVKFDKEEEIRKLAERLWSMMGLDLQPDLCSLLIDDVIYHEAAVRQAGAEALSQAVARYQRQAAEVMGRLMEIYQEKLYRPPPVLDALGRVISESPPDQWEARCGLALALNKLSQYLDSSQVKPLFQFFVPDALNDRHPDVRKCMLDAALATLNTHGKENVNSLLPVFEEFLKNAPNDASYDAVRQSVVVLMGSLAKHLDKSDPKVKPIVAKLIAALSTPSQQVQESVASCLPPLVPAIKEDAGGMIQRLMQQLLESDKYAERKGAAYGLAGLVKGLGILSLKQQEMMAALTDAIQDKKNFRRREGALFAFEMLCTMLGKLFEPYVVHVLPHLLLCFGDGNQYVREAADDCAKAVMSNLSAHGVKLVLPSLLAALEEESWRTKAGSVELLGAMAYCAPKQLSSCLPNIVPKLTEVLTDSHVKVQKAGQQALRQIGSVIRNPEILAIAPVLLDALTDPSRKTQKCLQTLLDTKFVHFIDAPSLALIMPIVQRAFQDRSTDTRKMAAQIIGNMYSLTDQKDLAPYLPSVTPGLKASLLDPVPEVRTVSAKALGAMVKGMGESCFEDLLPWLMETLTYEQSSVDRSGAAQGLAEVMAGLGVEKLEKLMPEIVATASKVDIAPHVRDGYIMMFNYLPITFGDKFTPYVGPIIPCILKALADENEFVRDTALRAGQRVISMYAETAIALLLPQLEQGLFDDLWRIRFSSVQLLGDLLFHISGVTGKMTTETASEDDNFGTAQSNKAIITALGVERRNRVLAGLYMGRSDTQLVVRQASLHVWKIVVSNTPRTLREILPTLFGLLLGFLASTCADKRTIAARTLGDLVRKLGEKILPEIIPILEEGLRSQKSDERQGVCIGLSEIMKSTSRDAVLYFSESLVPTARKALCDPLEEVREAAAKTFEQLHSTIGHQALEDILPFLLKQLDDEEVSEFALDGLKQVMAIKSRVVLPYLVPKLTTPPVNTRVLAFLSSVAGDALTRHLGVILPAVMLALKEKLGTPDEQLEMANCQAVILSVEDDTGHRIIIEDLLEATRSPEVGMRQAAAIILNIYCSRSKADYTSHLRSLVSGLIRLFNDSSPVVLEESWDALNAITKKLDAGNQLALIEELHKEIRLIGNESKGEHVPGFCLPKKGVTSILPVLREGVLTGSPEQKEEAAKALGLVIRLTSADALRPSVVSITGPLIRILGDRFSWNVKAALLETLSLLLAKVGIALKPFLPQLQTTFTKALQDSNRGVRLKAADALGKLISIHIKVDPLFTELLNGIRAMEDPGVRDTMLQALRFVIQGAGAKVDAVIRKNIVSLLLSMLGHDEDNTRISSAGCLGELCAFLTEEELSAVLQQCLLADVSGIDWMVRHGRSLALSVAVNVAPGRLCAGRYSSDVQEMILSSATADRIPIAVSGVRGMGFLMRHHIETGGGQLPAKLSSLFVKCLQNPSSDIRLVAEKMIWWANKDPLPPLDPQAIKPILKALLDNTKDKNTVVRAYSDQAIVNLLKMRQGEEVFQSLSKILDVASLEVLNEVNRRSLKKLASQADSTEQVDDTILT
T5 sequence (Q96RP9 37-751): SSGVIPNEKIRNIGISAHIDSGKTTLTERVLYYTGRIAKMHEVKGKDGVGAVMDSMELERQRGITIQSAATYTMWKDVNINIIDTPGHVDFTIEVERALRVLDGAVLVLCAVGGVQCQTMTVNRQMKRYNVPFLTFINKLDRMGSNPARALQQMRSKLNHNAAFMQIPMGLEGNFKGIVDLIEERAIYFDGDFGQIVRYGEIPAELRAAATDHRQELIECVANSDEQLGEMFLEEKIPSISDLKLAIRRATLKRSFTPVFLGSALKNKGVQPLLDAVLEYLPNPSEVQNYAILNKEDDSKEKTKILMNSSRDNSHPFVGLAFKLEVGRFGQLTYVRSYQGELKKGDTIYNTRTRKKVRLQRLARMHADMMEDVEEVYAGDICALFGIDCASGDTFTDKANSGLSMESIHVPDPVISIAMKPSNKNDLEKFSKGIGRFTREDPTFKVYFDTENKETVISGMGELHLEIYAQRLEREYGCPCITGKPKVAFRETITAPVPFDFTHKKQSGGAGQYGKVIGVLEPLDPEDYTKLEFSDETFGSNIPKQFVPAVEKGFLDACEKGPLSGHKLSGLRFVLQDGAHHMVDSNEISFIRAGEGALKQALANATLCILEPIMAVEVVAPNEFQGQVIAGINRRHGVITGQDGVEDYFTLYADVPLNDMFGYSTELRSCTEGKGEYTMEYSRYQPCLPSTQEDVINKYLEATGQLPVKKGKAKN
T3 sequence (Q96JM7 whole entry): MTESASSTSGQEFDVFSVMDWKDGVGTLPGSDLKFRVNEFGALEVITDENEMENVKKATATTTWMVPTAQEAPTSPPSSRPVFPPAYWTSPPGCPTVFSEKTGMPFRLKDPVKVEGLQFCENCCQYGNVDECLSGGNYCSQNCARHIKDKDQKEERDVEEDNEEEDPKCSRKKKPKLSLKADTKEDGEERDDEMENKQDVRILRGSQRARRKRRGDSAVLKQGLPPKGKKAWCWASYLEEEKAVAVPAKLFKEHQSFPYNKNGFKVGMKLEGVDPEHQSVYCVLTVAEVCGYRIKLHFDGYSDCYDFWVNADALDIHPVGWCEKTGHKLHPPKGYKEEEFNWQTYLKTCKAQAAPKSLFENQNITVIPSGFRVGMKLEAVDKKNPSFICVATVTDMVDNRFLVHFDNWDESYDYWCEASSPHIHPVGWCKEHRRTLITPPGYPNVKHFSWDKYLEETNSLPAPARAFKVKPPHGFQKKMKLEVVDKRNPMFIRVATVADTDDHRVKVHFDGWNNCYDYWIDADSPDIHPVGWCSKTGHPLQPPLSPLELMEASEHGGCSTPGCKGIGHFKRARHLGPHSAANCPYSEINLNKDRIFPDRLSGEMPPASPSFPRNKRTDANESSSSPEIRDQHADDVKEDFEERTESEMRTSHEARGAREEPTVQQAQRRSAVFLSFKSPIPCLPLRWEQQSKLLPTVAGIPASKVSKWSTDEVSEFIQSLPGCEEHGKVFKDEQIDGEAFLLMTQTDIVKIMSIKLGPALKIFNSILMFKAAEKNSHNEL

Regarding `O=C(CCl)Nc1cc(C(F)(F)F)cc(C(F)(F)F)c1` [KBO3], the Liganded result in test [1] (GCN1L1 Res# 648, uniprot Q92616) is reported as “YES”; in test [2] (ALDH1L2 Res# 707, uniprot Q3SY69), “YES”. The “100 Max” value amounted to 28.59 in test [1] (uniprot Q92616) and 52.7 in test [2] (uniprot Q3SY69). In addition, the 100 ave is 25.61 in test [1] (uniprot Q92616) and 52.7 in test [2] (uniprot Q3SY69). Besides, the “500 Max” value in test [1] (uniprot Q92616) was determined as 80.3; in test [2] (uniprot Q3SY69, in % (unit assumed)), 77.55. The 500 ave is reported as 78.745 in test [1] (uniprot Q92616) and 77.55 in test [2] (uniprot Q3SY69).

Regarding `COc1ccc2c(c1)CCCN2C(=O)CCl` [KB02], the Liganded result is “YES” in test [3]; “YES” in test [4] (RNF213 Res# 1510, uniprot Q63HN8); “YES” in test [4] (RNF213 Res# 4258, uniprot Q63HN8); “YES” in test [4] (RNF213 Res# 4407, uniprot Q63HN8); “YES” in test [5]; “YES” in test [6] (SRRM2 Res# 1029, uniprot Q9UQ35). Also, the Liganded result in test [6] (SRRM2 Res# 1036, uniprot Q9UQ35) was “YES”.

The values are drawn from patent US20200239530A1, “COMPOUNDS AND METHODS OF MODULATING PROTEIN DEGRADATION” (Vividion Therapeutics, Inc., priority 2017, published 2020).
